{"source": "patent US12630501B2", "about": "“Anti-fibrotic compounds and use thereof” (HADASIT MEDICAL RESEARCH SERVICES AND DEVELOPMENT LTD., priority 2019, dated 2026)", "type_in_all_cases": "cell-based, human", "key": {"[1]": {"test_system": "Ku70", "assay": "Ku70 immunoprecipitation with pan-acetyl / Ku70 immunoblot in IPF-lung myofibroblasts", "protocol": "(§1) Human lung myofibroblasts Differentiated fibroblasts from IPF-lungs and controls from patient lung biopsies performed for tumor diagnosis were obtained under a protocol detailed in Wallach-Dayan et al., J. Autoimmun. 59: 67-76, 2015. LL 97A (AlMy) (ATCC® CCL-191™)-IPF-lung, and LL 24 (ATCC® CCL-151™)-normal lung fibroblast cell lines were used.\nImmunoprecipitation and immunoblotting Standard protocols were performed as described in Golan-Gerstl et al., Am. J. Respir. Cell Mol. Biol. 47: 271-279, 2012.\n(§2) FLIP downregulation from an OD of 1.85 to 0.49 (about 3.5-fold) was detected in WB (FIG. 4F), and a […] from a mean fluorescence intensity (MFI)=10^3 to only 10^1 was detected with flow cytometry (FIG. 4G). Thus, SIRT1-mediated Ku70-deacetylation stabilizes IPF-lung myofibroblast FLIP via Ku70/FLIP complex. This effect of CMH on Ku70 further disrupts Ku70/FLIP complex and destabilizes FLIP in IPF-lung myofibroblasts.\n(§3) IPF cell line ATCC-191 (0.5×10^6), were exposed in culture (10% DMEM) to a compound of Formula 6 (1 or 3 μM) vs. 4% DMSO (vehicle) for 16 h. Ku70 immunoprecipitation with subsequent pan-acetyl (FIG. 8A) and immunoblots of Ku70 with anti-Ku70 mAb (FIG. 8B) or FLIP with anti-FLIP mAb (FIG. 8C) were measured. […] IPF-lung myofibroblasts decreased FLIP expression from an OD of 1.00 to 0.51 (about twofold, FIG. 8C)."}, "[2]": {"test_system": "FLIP", "assay": "FLIP protein by Western blot and flow cytometry in IPF-lung myofibroblasts", "details": "16 h", "protocol": "as §1\nFLIP protein in lung myofibroblasts Standard WB and flow cytometry were performed as described in Cohen et al., Am. J. Respir. Cell Mol. Biol. 40: 231-238, 2009.\nas §2, §3\nIPF cell line ATCC-191 (0.5×10^6), were exposed in culture (10% DMEM) to a compound of Formula 12 (1 μM), vs. 4% DMSO (vehicle) for 16 h. Immunoblots of FLIP with anti-FLIP mAb were performed (FIG. 9). […] Thus, the compound of Formula 12 attenuates FLIP stabilization in IPF-lung myofibroblast."}, "[3]": {"test_system": "IPF cell line ATCC-191", "assay": "Caspase-3 cleaved vs. uncleaved immunoblot (direct cytotoxicity)", "details": "72 h", "protocol": "IPF cell line ATCC-191 (0.5×10^6), were exposed in culture (10% DMEM) to a compound of Formula 6 (0.1-30 μM) vs. 4% DMSO (vehicle) for 72 h. Cells were lysed and immunoblots of caspase-3 cleaved vs. uncleaved were performed. […] Lower concentrations of a compound of Formula 6 treated cells even decreased their ratio indicating no toxicity of the analogue at these concentrations."}}, "note": "“And” between values parts separate entries of the source, which are not always exact repeats. Equal values may be shown once.", "data": [{"smiles": "O=C(CCCCOc1ccc2ccccc2c1)NO", "note": "[Formula 6]", "values": [{"measurement": "Increase of Ku70 acetylation", "setting": "[1]; Formula 6 1 μM, 16 h", "result": "about 80 fold"}, {"measurement": "Ku70 levels (anti-Ku70 immunoblot)", "setting": "[1]; Formula 6 1 μM, 16 h", "result": "without changing"}, {"measurement": "Ku70 acetylation, optical density ratio to GAPDH (OD), pan-acetyl IB of Ku70 IP", "setting": "[1]; Formula 6 1 μM, 16 h, ATCC-191, vehicle 0.007", "result": 0.55, "unit": "OD"}, {"measurement": "Inhibition of Ku70-deacetylation compared with CMH", "setting": "[1]; IPF-lung myofibroblasts", "result": "to a greater extent than CMH"}, {"measurement": "Decrease of FLIP expression", "setting": "[2]; Formula 6 1 or 3 μM", "result": "about twofold"}, {"measurement": "FLIP expression OD (anti-FLIP immunoblot)", "setting": "[2]; Formula 6 1 or 3 μM, ATCC-191, vehicle 1.00", "result": 0.51, "unit": "OD"}, {"measurement": "Cleaved caspase-3", "setting": "[3]; 0.1 μM", "result": 7.5}, {"measurement": "Cleaved/Uncleaved caspase-3", "setting": "[3]; 0.1 μM", "result": 0.27}, {"measurement": "Uncleaved caspase-3", "setting": "[3]; 0.1 μM", "result": 27.37}, {"measurement": "Cleaved caspase-3", "setting": "[3]; 0.3 μM", "result": 11.66}, {"measurement": "Cleaved/Uncleaved caspase-3", "setting": "[3]; 0.3 μM", "result": 0.18}, {"measurement": "Uncleaved caspase-3", "setting": "[3]; 0.3 μM", "result": 65.84}, {"measurement": "Cleaved caspase-3", "setting": "[3]; 1 μM", "result": 27.59}, {"measurement": "Cleaved/Uncleaved caspase-3", "setting": "[3]; 1 μM", "result": 0.46}, {"measurement": "Uncleaved caspase-3", "setting": "[3]; 1 μM", "result": 60.57}, {"measurement": "Cleaved caspase-3", "setting": "[3]; 3 μM", "result": 81.78}, {"measurement": "Cleaved/Uncleaved caspase-3", "setting": "[3]; 3 μM", "result": 1.10}, {"measurement": "Uncleaved caspase-3", "setting": "[3]; 3 μM", "result": 74.31}, {"measurement": "Cleaved caspase-3", "setting": "[3]; 10 μM", "result": 112.38}, {"measurement": "Cleaved/Uncleaved caspase-3", "setting": "[3]; 10 μM", "result": 1.43}, {"measurement": "Uncleaved caspase-3", "setting": "[3]; 10 μM", "result": 78.84}, {"measurement": "Cleaved caspase-3", "setting": "[3]; 30 μM", "result": 93.19}, {"measurement": "Cleaved/Uncleaved caspase-3", "setting": "[3]; 30 μM", "result": 2.49}, {"measurement": "Uncleaved caspase-3", "setting": "[3]; 30 μM", "result": 37.4}, {"measurement": "Direct cytotoxic effects on cells", "setting": "[3]; 0.1-30 μM, in the absence of Fas", "result": "does not exert direct cytotoxic effects"}]}, {"smiles": "COc1ccc(OCCCCC(=O)NO)cc1", "note": "[Formula 12]", "values": [{"measurement": "Decrease of FLIP levels", "setting": "[2]; Formula 12 1 μM", "result": "about twofold"}, {"measurement": "FLIP levels, optical density ratio to GAPDH (OD)", "setting": "[2]; Formula 12 1 μM, ATCC-191, vehicle 9.5, 13.3 and 8.4", "result": "4.7 OD and 3.7 OD and 4.8 OD"}]}]}
